Earlier results, collected in US20060057203A1 (priority 2002, published 2006).

NC(=O)N1c2ccccc2CC(=O)c2ccccc21 [oxcarbazepine]
solubility in water: practically insoluble
